The source of these data is patent US20210220384A1, “ORAL ADMINISTRABLE PHARMACEUTICAL COMPOSITION” (TAIHO PHARMACEUTICAL CO., LTD., priority 2012, published 2021).

This data set in a line: Critical relative humidity of additives by moisture sorption analyzer (Test Example 1). It is filed as physicochemical. The following applies: of the additive (excipient) alone, moisture sorption analyzer DVS-1. The procedure: The orally administrable pharmaceutical composition of the present invention, to which sugars having a critical relative humidity of 85% or more at 25° C. as an excipient is added, suppresses increases in FTD and TPI related substances even stored under high-humidity conditions. A “critical relative humidity” herein means a well-known indicator representing the hygroscopicity, and refers to a relative humidity when a rapid increase in the amount of moisture absorbed in a sample is observed in the case where the relative humidity is increased. The critical relative humidity can be checked by measuring the change in the weight of a sample at 25° C. and a relative humidity of from 10 to 95% using, for example, a moisture sorption analyzer (DVS-1, Surface Measurement Systems Ltd.). “A critical relative humidity at 25° C. is 85% or more” means that moisture is not substantially absorbed when the relative humidity at 25° C. is less than 85%. Also, “no critical relative humidity” means that moisture is absorbed at a low humidity depending on the humidity, and a rapid increase in the amount of moisture absorbed associated with an increase in the relative humidity is not observed.
The critical relative humidity of additives at 25° C. shown in Tables 1 and 2 was measured using a moisture sorption analyzer (DVS-1, Surface Measurement Systems Ltd.).
Take `OC[C@@H](O)[C@@H](O)[C@H](O)[C@H](O)CO` [D-mannitol]: the “Critical relative humidity (%, at 25° C.)” value was 95 or more %.
As for `OC[C@@H](O)[C@@H](O)[C@H](O)[C@@H](O)CO` [D-sorbitol], the “Critical relative humidity (%, at 25° C.)” value is on record as 50-60%.
Consider `O.OC[C@H]1O[C@@H](O[C@H]2[C@H](O)[C@@H](O)C(O)O[C@@H]2CO)[C@H](O)[C@@H](O)[C@H]1O` (some centres unmarked) [Lactose hydrate, lactose hydrate], for which the “Critical relative humidity (%, at 25° C.)” value is listed as 95 or more %.
In the case of `OC[C@H]1O[C@@](CO)(O[C@H]2O[C@H](CO)[C@@H](O)[C@H](O)[C@H]2O)[C@@H](O)[C@@H]1O` [Sucrose, sucrose], the “Critical relative humidity (%, at 25° C.)” value is given as 85 or more %.
On to `OC[C@@H](O)[C@H](O)[C@@H](O)CO` [Xylitol, xylitol], for which the “Critical relative humidity (%, at 25° C.)” value was 75-85%.
